Data on 23 molecules can be found in BindingDB's records for patent US10196390 (Nimbus Lakshmi, Inc., 2019).

One may read the Ki as the dissociation constant of the complex between target and ligand, obtained from inhibition or displacement. Read a low Ki as a stronger hold on the target.

Tyrosine-protein kinase JAK2, sequence (O60674 whole entry): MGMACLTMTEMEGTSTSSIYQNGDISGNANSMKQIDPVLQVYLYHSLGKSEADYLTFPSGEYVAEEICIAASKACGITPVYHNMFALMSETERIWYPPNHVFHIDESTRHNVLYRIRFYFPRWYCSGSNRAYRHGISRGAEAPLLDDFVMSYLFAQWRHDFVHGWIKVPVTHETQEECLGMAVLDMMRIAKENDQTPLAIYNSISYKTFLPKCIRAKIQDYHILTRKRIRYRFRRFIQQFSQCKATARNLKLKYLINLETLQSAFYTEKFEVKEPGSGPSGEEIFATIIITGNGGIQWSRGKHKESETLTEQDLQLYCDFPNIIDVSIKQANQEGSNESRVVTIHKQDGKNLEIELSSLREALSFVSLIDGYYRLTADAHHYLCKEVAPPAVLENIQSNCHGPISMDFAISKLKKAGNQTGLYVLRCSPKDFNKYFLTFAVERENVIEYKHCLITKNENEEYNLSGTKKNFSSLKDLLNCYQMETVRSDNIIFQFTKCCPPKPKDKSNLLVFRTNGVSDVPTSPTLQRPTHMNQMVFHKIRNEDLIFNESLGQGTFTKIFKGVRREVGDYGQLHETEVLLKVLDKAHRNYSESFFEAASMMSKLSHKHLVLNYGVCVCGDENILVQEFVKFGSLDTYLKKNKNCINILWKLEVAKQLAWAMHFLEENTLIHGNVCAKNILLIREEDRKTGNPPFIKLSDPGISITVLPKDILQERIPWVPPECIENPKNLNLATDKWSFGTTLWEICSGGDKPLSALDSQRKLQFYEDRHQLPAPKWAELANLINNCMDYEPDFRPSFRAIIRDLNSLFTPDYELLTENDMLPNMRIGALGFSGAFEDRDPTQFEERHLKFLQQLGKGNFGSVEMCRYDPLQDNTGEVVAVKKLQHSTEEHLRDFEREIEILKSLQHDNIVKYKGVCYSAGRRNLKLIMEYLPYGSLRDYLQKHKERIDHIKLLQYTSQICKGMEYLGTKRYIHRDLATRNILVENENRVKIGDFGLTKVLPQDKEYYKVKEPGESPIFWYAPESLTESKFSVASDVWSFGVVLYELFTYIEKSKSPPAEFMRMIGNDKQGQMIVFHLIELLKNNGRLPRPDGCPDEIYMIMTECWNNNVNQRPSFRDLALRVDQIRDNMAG

The experiment has as its target Tyrosine-protein kinase JAK2 (Homo sapiens, UniProt O60674).
As to `Cc1ccc(Nc2nc(-c3c(F)cccc3F)nc3c2C(=O)NC3)cc1` [US10196390, Compound I-21], the inhibitory constant (Ki) was > 1000 nM.
`COC(=O)Cc1ncc(Nc2nc(-c3c(F)cccc3F)nc3c2C(=O)NC3)cn1` [US10196390, Compound I-166]: the inhibition constant (Ki) is > 1000 nM.
Take `CCNC(=O)Cc1ncc(Nc2nc(-c3c(F)cccc3F)nc3c2C(=O)NC3)cn1` [US10196390, Compound I-169]: the Ki is > 1000 nM.
The same measure for `O=C1NCc2nc(-c3c(F)cccc3F)nc(Nc3ccc(OC(F)(F)F)cc3)c21` [US10196390, Compound I-184]: > 1000 nM.
In the case of `O=C1NCc2nc(-c3c(F)cccc3F)nc(Nc3ccc(C4CCCCC4)cc3)c21` [US10196390, Compound I-197], the Ki is > 1000 nM.
For `O=C1NCc2nc(-c3c(F)cccc3F)cc(Nc3ccc(N4CCCC4)cn3)c21` [US10196390, Compound I-205] the value was > 1000 nM.
For `O=C1NCc2nc(-c3c(F)cccc3F)cc(Nc3ccc(N4CCC5(CC5)C4)cn3)c21` [US10196390, Compound I-233] the value was > 1000 nM; for `O=C1NCc2nc(-c3c(F)cccc3F)cc(Nc3ccc(F)cn3)c21` [US10196390, Compound I-234], < 10 nM; for `O=C1NCc2nc(-c3c(F)cccc3F)nc(Nc3ccc(S(=O)(=O)C(F)(F)F)cc3)c21` [US10196390, Compound I-236], > 1000 nM.
The same measure for `CC(C)N1CCN(c2ccc(Nc3cc(-c4c(F)cccc4F)nc4c3C(=O)NC4)nc2)CC1` [US10196390, Compound I-256]: < 10 nM.
In the case of `COc1ccc(Nc2cc(-c3c(F)cccc3C#N)nc3c2C(=O)NC3)nc1` [US10196390, Compound I-258], the Ki was < 10 nM.
For `CCN(CC)C(=O)c1ccc(Nc2cc(-c3c(F)cccc3F)nc3c2C(=O)NC3)cc1` [US10196390, Compound I-259] the value was < 10 nM; for `C[C@H]1COC[C@H](C)N1c1ccc(Nc2cc(-c3c(F)cccc3F)nc3c2C(=O)NC3)nc1` [US10196390, Compound I-264], < 10 nM; for `CC1(C)CCC(=O)N1c1ccc(Nc2cc(-c3c(F)cccc3F)nc3c2C(=O)NC3)nc1` [US10196390, Compound I-272], < 10 nM.
`CN(c1ccc(Nc2cc(-c3c(F)cccc3F)nc3c2C(=O)NC3)nc1)C(C)(C)C` [US10196390, Compound I-274]: the Ki is < 10 nM.
For `O=C1NCc2nc(-c3c(F)cccc3F)cc(Nc3ccc(NS(=O)(=O)C(F)F)cn3)c21` [US10196390, Compound I-277] the value was < 10 nM.
Take `CC(C)(C)Nc1ccc(Nc2cc(-c3c(F)cccc3F)nc3c2C(=O)NC3)nc1` [US10196390, Compound I-278]: the Ki was < 10 nM.
Take `CCNC(=O)c1ccc(Nc2cc(-c3c(F)cccc3C#N)nc3c2C(=O)NC3)nc1` [US10196390, Compound I-282]: the Ki is < 10 nM.
In the case of `O=C1NCc2nc(-c3c(F)cccc3F)cc(Nc3ccc(C(=O)N4CCC(F)(F)CC4)cc3)c21` [US10196390, Compound I-283], the Ki is < 10 nM.
Consider `C[C@@H]1COC[C@@H](C)N1C(=O)c1ccc(Nc2cc(-c3c(F)cccc3F)nc3c2C(=O)NC3)cc1` [US10196390, Compound I-285], for which the inhibitory constant (Ki) is < 10 nM.
For `N#Cc1cccc(F)c1-c1cc(Nc2ccc(C(=O)N3CCOCC3)cc2)c2c(n1)CNC2=O` [US10196390, Compound I-287] the value was < 10 nM; for `CC1CC(O)CC(C)N1c1ccc(Nc2cc(-c3c(F)cccc3F)nc3c2C(=O)NC3)nc1` (stereo not drawn) [US10196390, Compound I-288], < 10 nM; for `Cc1ccc(Nc2nc(-c3c(F)cccc3F)nc3c2C(=O)NC3)cc1F` [US10196390, Compound I-292], > 1000 nM.
